Common to all, as to type: biochemical
Data set [1] concerns the target T1, purine nucleoside phosphorylase (PNP) (Homo sapiens, UniProt P00491).
T1 construct: Human Erythrocytes; from tissue; host or cells: human erythrocytes
T1 sequence (P00491 1-289): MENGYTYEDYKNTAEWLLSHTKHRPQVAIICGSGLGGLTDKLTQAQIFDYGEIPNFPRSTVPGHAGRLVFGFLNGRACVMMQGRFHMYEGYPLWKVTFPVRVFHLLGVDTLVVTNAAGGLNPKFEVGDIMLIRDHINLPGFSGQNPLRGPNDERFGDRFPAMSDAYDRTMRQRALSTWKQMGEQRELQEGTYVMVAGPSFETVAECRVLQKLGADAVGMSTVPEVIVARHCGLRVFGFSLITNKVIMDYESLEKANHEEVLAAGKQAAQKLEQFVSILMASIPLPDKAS
The experiment in a line: PNP inhibition, coupled xanthine oxidase method of Kalckar (human erythrocyte PNP).

The target of data set [2] is T2, purine nucleoside phosphorylase (PNP) (Bos taurus, UniProt P55859).
T2 construct: Calf Spleen; from tissue; host or cells: calf spleen
T2 sequence (P55859 1-289): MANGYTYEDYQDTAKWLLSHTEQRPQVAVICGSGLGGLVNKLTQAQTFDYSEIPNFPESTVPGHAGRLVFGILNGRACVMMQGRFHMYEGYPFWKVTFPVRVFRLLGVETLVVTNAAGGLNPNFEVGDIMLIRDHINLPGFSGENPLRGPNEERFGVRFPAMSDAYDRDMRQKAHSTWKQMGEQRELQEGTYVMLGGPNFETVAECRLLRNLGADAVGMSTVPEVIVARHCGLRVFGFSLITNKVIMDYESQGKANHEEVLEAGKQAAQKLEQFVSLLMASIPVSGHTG
The experiment in a line: PNP inhibition, coupled xanthine oxidase method of Kalckar (calf spleen PNP). The procedure:
(§1) Purine nucleoside phophorylase (PNP) inhibitory activity can be determined by the coupled xanthine oxidase method of Kalckar, using inosine as the substrate (H.M.Kalckar, J. Biol. Chem. 167, 429-443 (1947)). […] The Ki for representative members of the compounds of formula 1 are tabulated in table 1 and are compared to the KM values of the substrate inosine using PNP from various sources. […] The presence of 2'-deoxyguanosine (about 10 µM), a natural metabolite, appears to be important in in vitro activity.

In data set [3] the target is T3, purine nucleoside phosphorylase (PNP) (Rattus norvegicus, UniProt P85973).
T3 construct: Rat Erythrocytes; from tissue; host or cells: rat erythrocytes
T3 sequence (P85973 1-289): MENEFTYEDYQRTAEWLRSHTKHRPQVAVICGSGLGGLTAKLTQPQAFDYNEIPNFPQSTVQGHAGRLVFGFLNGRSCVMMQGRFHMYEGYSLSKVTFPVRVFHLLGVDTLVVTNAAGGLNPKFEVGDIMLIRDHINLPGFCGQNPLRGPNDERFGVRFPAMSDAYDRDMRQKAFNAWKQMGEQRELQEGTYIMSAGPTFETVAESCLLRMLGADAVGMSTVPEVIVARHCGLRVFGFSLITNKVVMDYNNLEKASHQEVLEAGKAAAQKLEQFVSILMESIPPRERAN
Kind of data set: PNP inhibition, coupled xanthine oxidase method of Kalckar (rat erythrocyte PNP).

Substrate in data set [4]: OC[C@H]1O[C@@H](n2cnc3c(O)ncnc32)[C@H](O)[C@@H]1O
The experiment in a line: PNP inhibition, coupled xanthine oxidase method of Kalckar (human erythrocyte PNP). Conditions: other: substrate KM for comparison; pH 7.4.

Substrate in data set [5]: OC[C@H]1O[C@@H](n2cnc3c(O)ncnc32)[C@H](O)[C@@H]1O
Kind of data set: PNP inhibition, coupled xanthine oxidase method of Kalckar (rat erythrocyte PNP). Conditions: other: substrate KM for comparison; pH 7.4.

Substrate in data set [6]: OC[C@H]1O[C@@H](n2cnc3c(O)ncnc32)[C@H](O)[C@@H]1O
The experiment in a line: PNP inhibition, coupled xanthine oxidase method of Kalckar (calf spleen PNP). Conditions: other: substrate KM for comparison; pH 7.4. How it is done:
as §1

Read-outs that look alike come from different tables or passages of the source.

On to `Nc1nc2c(ncn2CCCCCC(F)(F)P(=O)(O)O)c(=O)[nH]1` [9-(6-phosphono-6,6-difluorohexyl)guanine], for which the Ki in data set [1] came out at 2.8e-07 M; in data set [2] it was 3.2e-07 M; in data set [3], 1.8e-07 M.
Take `Nc1nc(O)c2ncn(CCCCCCCP(=O)(O)O)c2n1` [9-(7-phosphono-heptyl)guanine]: the Ki in data set [1] worked out at 6.8e-07 M; in data set [2], 1.2e-06 M; in data set [3] (apparent dissociation constant, 1 mM inorganic phosphate, 0.1 M HEPES buffer (pH 7.4), inosine 0.05 mM to 0.15 mM as substrate, read-out: Ki (M) PNP SOURCE Rat Erythrocytes), 7.5e-08 M.
With `Nc1nc2c(ncn2CCCCCCC(F)(F)P(=O)(O)O)c(=O)[nH]1` [9-(7-phosphono-7,7-difluoroheptyl)guanine], the Ki is 8e-08 M in data set [1], 1.5e-07 M in data set [2] and 9.6e-09 M in data set [3].
Turning to `CCOP(=O)(O)C(F)(F)CCCCCCn1cnc2c(=O)[nH]c(N)nc21` [9-(7-phosphono-7,7-difluoroheptyl)guanine, ethyl ester], the Ki in data set [1] (apparent dissociation constant, 1 mM inorganic phosphate, 0.1 M HEPES buffer (pH 7.4), inosine 0.05 mM to 0.15 mM as substrate, read-out: Ki (M) PNP SOURCE Human Erythrocytes) is 8e-07 M; in data set [2] (apparent dissociation constant, 1 mM inorganic phosphate, 0.1 M HEPES buffer (pH 7.4), inosine 0.05 mM to 0.15 mM as substrate, read-out: Ki (M) PNP SOURCE Calf Spleen) it was 3.3e-06 M; in data set [3], 2.8e-07 M.
Regarding `Nc1nc2c(ncn2CCCCC(F)(F)P(=O)(O)O)c(=O)[nH]1` [9-(5-phosphono-5,5-difluoropentyl)guanine], the Ki in data set [3] stood at 3.5e-08 M.
With `Nc1nc2c(ncn2CCCCCCCC(F)(F)P(=O)(O)O)c(=O)[nH]1` [9-(8-phosphono-8,8-difluorooctyl)guanine], the Ki in data set [1] stood at 1.9e-07 M; in data set [2], 6.2e-07 M; in data set [3], 4.6e-09 M.
For the molecule `O=c1[nH]cnc2c1ncn2CCCCCCC(F)(F)P(=O)(O)O` [9-(7-phosphono-7,7-difluoroheptyl)hypoxanthine], the results for the Ki in data set [1], in data set [2] and in data set [3] were 1e-07 M, 2.2e-06 M and 1.6e-07 M, respectively.

B1: purine nucleoside phosphorylase (PNP) (Homo sapiens) (protein)
chain: MENGYTYEDYKNTAEWLLSHTKHRPQVAIICGSGLGGLTDKLTQAQIFDYGEIPNFPRSTVPGHAGRLVFGFLNGRACVMMQGRFHMYEGYPLWKVTFPVRVFHLLGVDTLVVTNAAGGLNPKFEVGDIMLIRDHINLPGFSGQNPLRGPNDERFGDRFPAMSDAYDRTMRQRALSTWKQMGEQRELQEGTYVMVAGPSFETVAECRVLQKLGADAVGMSTVPEVIVARHCGLRVFGFSLITNKVIMDYESLEKANHEEVLAAGKQAAQKLEQFVSILMASIPLPDKAS
notes: Human Erythrocytes; from tissue; host or cells: human erythrocytes
For the molecule B1, the Km in data set [4] worked out at 70 x 10⁻⁶ M.

B2: purine nucleoside phosphorylase (PNP) (Rattus norvegicus) (protein)
chain: MENEFTYEDYQRTAEWLRSHTKHRPQVAVICGSGLGGLTAKLTQPQAFDYNEIPNFPQSTVQGHAGRLVFGFLNGRSCVMMQGRFHMYEGYSLSKVTFPVRVFHLLGVDTLVVTNAAGGLNPKFEVGDIMLIRDHINLPGFCGQNPLRGPNDERFGVRFPAMSDAYDRDMRQKAFNAWKQMGEQRELQEGTYIMSAGPTFETVAESCLLRMLGADAVGMSTVPEVIVARHCGLRVFGFSLITNKVVMDYNNLEKASHQEVLEAGKAAAQKLEQFVSILMESIPPRERAN
notes: Rat Erythrocytes; from tissue; host or cells: rat erythrocytes
For the molecule B2, in data set [5], the Km is 80 x 10⁻⁶ M.

B3: purine nucleoside phosphorylase (PNP) (Bos taurus) (protein)
chain: MANGYTYEDYQDTAKWLLSHTEQRPQVAVICGSGLGGLVNKLTQAQTFDYSEIPNFPESTVPGHAGRLVFGILNGRACVMMQGRFHMYEGYPFWKVTFPVRVFRLLGVETLVVTNAAGGLNPNFEVGDIMLIRDHINLPGFSGENPLRGPNEERFGVRFPAMSDAYDRDMRQKAHSTWKQMGEQRELQEGTYVMLGGPNFETVAECRLLRNLGADAVGMSTVPEVIVARHCGLRVFGFSLITNKVIMDYESQGKANHEEVLEAGKQAAQKLEQFVSLLMASIPVSGHTG
notes: Calf Spleen; from tissue; host or cells: calf spleen
For B3, the Km in data set [6] was 28 x 10⁻⁶ M.

These data come from patent EP0338887B1, “Phosphonoalkylpurine derivatives” (MERRELL DOW PHARMACEUTICALS INC., priority 1988, dated 1989).
